From paper PMC7778606, “Development of the phenylpyrazolo[3,4-d]pyrimidine-based, insulin-like growth factor receptor/Src/AXL-targeting small molecule kinase inhibitor” (Theranostics, 2021) come the findings set out here.

In one data set the test system is NSCLC cells. Description: Anchorage-dependent colony formation assay. In kind it is cell-based, human. The following applies: subset of NSCLC cells. The protocol: Cells were seeded into 6-well plates at a density of 300 cells/well and treated with LL6. The drug-containing medium was changed once or twice a week. After incubation for 10-14 days, colonies were fixed with 100% methanol, stained with 0.002% crystal violet solution, and washed with deionized water several times. The colonies were imaged and manually counted.

For another data set, the system named is AXL. Description: Western blot, phosphorylation of AXL in H1944 and A549 cells. In kind it is cell-based, human. The following applies: 2.5 μM. The procedure:
Before harvesting, the cells were stimulated with 10% FBS for 20 min. Total cell lysates were prepared with modified radioimmunoprecipitation assay lysis buffer (50 mM Tris-HCl [pH 7.4], 150 mM NaCl, 1 mM EDTA, 0.25% sodium deoxycholate, 1% Triton X-100, 100 mM NaF, 5 mM Na3VO4, 1 mM PMSF, 1 μg/mL aprotinin, 1 μg/mL leupeptin, and 1 μg/mL pepstatin). Equal amounts of protein (20 μg) were subjected to 8% SDS-PAGE and electrically transferred onto polyvinylidene difluoride membranes (Bio-Rad Laboratories, Hercules, CA, USA). Membranes were blocked with blocking buffer (3% BSA in Tris-buffered saline containing 0.1% Tween-20 [TBST]) for 1 h at room temperature. The membranes were incubated with primary antibodies diluted in 3% BSA in TBST (1:1,000) overnight at 4 °C, washed multiple times with TBST, and incubated with secondary antibodies diluted in 3% nonfat dry milk in TBST (1:5,000) for 1 h at room temperature. The membranes were washed multiple times with TBST and visualized using an enhanced chemiluminescence detection kit (Thermo Fisher Scientific). Densitometric analysis was performed using ImageJ software.
Background: Immunoblotting shows a protein as a band on a membrane.

A further data set concerns the target T1, CDK11 (Homo sapiens, UniProt Q9BWU1).
T1 construct: purchased DiscoverX KINOMEscan
Description: KINOMEscan competition binding assay. The following applies: LL6 at 10 μM; read-out: Percent Control. The protocol: (§1) Kd values were obtained by KINOMEscan from DiscoverX (San Diego, CA, USA). To briefly summarize, Kd was measured by a competition binding assay that quantitatively measures the ability of a compound to compete with an immobilized ligand. […] Dose response curves of 11 points are obtained for Kd values, which are measured in duplicate. See more details in the cited references [39]-[42] and see also at www.discoverx.com.

For another data set, the target named is T2, PLK3 (Homo sapiens, UniProt Q9H4B4).
T2 construct: purchased DiscoverX KINOMEscan
In words: KINOMEscan competition binding assay. The following applies: LL6 at 10 μM; read-out: Percent Control. The procedure:
as §1

For the next data set, the target named is T3, p38-alpha (Homo sapiens, UniProt Q16539).
T3 construct: purchased DiscoverX KINOMEscan
In words: KINOMEscan competition binding assay. The following applies: LL6 at 10 μM; read-out: Percent Control. The protocol: as §1

The subject of another data set is Src. In words: Western blot, phosphorylation of Src in H1944 and A549 cells. The format is cell-based, human. The following applies: 2.5 μM.
A short description of data set [1]: Pharmacokinetic study in rats. The format is in vivo, SD rats. The protocol: The pharmacokinetic properties of LL6 were investigated in SD rats (n = 3). The left femoral artery and vein were catheterized with polyethylene tube (Intramedic^TM PE-50; Becton-Dickinson Diagnostics, MD, USA) under Zoletil (Virbac, Carros, France) anesthesia (50 mg/kg, intramuscular injection). LL6 was dissolved in DMSO/PEG 400/normal saline mixture (35:35:30, v/v/v) and single dose solution (1 mg/kg) was administered to rat intravenously. Approximately 150 µL of blood samples were collected via femoral artery at predetermined time (1, 3, 5, 10, 15, 30, 60, 120 and 180 min) and equivalent volume of normal saline solution with 20 U/mL of heparin was replenished to prevent blood coagulation. After centrifugation of the sample at 16,000 × g for 5 min, 50 µL aliquot of plasma samples were stored at -20 °C until HPLC-MS/MS analysis. The Pharmacokinetic parameters, including terminal half-life (T½), area under the plasma concentration-time curve from time zero to time last (AUClast), area under the plasma concentration-time curve from time zero to time infinity (AUCinf), volume of distribution at steady-state (Vss) and mean residence time (MRT) were calculated using non-compartmental analysis (WinNonlin, version 3.1, NCA 201; Pharsight, Mountain View, CA, USA).

The next data set concerns H460/PmR cells. Description: MTT assay, viability of pemetrexed-resistant H460/PmR cells. The following applies: Homo sapiens, NCI-H460, 72 h, three days, read-out: IC50 against the viability. The format is cell-based. An excerpt:
Human lung cancer cell lines (A549, H1299, H1993, H1944, H226B, H226Br, H460, H522, HCC15, and PC9), a diploid human lung fibroblast cell line (Wi38), and the Lewis lung carcinoma (LLC) cell line were purchased from the American Type Culture Collection (ATCC, Manassas, VA, USA) or kindly provided by Dr. John V. Heymach (MD Anderson Cancer Center, Houston, TX, USA). Human retinal pigment epithelial (RPE) cells were kindly provided by Dr. Jeong Hun Kim (College of Medicine, Seoul National University, Seoul, Republic of Korea). HT-22 cells were provided by Dr. Dong Gyu Jo (College of Pharmacy, Sungkyunkwan University, Suwon, Republic of Korea). Lung cancer cells were cultured in RPMI 1640 medium supplemented with 10% fetal bovine serum (FBS) and antibiotics (Welgene, Gyeongsan-si, Republic of Korea). LLC, HT-22, and Wi38 cells were maintained in DMEM supplemented with 10% FBS and antibiotics. RPE cells were maintained in DMEM/F12 supplemented with 10% FBS and antibiotics. […]
Cells were seeded into 96-well plates at a density of 1-2 × 10^3 cells/well and incubated for 24 h. […] The formazan products were dissolved in dimethyl sulfoxide (DMSO), and the absorbance was measured at 570 nm. […]
On the technique in general: Tetrazolium assays rely on reduction of a dye to a coloured formazan, in cell work by metabolically active cells.

In another data set the test system is HCC15 cells. Description: MTT assay, viability of HCC15 cells. The format is cell-based. The following applies: Homo sapiens, 72 h, three days, read-out: IC50 against the viability. The protocol: Cells were seeded into 96-well plates at a density of 1-2 × 10^3 cells/well and incubated for 24 h. Cells were treated with vehicle or various concentrations of test compounds for two (PC9 and PC9/ER cells) or three (other cells) days. Cells were further incubated with MTT solution (final concentration of 500 μg/mL) for 4 h at 37 °C. The formazan products were dissolved in dimethyl sulfoxide (DMSO), and the absorbance was measured at 570 nm. The data are presented as a percentage of the control group.

[2] abbreviates: SD, rat, plasma, rats, intravenous, 1 mg/kg.

Read-outs that look alike come from different tables or passages of the source.

T1 sequence (Q9BWU1 whole entry): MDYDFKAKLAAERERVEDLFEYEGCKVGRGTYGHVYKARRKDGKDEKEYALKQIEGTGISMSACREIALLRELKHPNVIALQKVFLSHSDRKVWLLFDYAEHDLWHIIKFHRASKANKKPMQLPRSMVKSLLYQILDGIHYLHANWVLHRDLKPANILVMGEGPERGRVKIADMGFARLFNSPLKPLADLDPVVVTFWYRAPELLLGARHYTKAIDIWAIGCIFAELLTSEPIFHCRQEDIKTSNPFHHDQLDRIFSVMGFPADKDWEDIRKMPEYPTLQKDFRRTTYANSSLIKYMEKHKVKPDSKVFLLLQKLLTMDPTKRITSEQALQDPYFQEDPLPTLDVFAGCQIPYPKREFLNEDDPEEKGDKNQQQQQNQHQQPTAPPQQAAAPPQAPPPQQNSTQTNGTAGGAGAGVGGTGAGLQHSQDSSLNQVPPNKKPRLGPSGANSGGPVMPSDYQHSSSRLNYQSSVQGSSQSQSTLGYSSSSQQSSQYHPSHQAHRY
T3 sequence (Q16539 whole entry): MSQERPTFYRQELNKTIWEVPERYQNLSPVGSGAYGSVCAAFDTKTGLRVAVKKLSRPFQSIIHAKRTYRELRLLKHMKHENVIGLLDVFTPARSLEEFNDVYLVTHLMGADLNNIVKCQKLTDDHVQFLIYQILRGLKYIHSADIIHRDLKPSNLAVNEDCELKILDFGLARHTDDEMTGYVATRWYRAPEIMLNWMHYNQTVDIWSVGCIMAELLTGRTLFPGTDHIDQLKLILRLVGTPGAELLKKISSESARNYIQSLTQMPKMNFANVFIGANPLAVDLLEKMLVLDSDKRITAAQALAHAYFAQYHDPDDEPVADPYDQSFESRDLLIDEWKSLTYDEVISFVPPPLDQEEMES
T2 sequence (Q9H4B4 whole entry): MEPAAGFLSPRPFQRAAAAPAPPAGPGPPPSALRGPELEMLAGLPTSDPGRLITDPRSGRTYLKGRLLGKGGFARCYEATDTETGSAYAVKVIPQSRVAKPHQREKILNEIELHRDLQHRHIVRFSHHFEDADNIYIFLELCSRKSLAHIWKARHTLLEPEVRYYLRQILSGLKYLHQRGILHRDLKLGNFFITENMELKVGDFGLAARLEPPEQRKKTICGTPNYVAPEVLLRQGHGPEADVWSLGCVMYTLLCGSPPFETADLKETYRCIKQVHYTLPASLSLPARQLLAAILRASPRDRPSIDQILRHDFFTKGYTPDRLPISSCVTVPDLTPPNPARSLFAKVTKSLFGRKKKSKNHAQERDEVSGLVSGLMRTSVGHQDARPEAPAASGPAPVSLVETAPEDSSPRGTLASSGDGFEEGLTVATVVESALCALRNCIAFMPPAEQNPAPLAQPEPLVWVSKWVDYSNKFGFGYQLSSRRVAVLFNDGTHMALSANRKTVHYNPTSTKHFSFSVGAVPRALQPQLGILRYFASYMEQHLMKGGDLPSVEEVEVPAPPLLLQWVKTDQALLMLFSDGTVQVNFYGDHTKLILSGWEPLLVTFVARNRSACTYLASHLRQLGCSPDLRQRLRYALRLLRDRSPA
Description for Src: Before harvesting, the cells were stimulated with 10% FBS for 20 min. […] Equal amounts of protein (20 μg) were subjected to 8% SDS-PAGE and electrically transferred onto polyvinylidene difluoride membranes (Bio-Rad Laboratories, Hercules, CA, USA). Membranes were blocked with blocking buffer (3% BSA in Tris-buffered saline containing 0.1% Tween-20 [TBST]) for 1 h at room temperature. The membranes were incubated with primary antibodies diluted in 3% BSA in TBST (1:1,000) overnight at 4 °C, washed multiple times with TBST, and incubated with secondary antibodies diluted in 3% nonfat dry milk in TBST (1:5,000) for 1 h at room temperature. The membranes were washed multiple times with TBST and visualized using an enhanced chemiluminescence detection kit (Thermo Fisher Scientific). Densitometric analysis was performed using ImageJ software.

Broadly, the AUC(0-inf) is the area under the concentration-time curve extrapolated to infinity. A high value points to high exposure. One may read the AUC(0-t) as exposure summed from dosing to a finite time, without extrapolation to infinity. Read a low AUC(0-t) as less exposure. For orientation: MRT means the average time that molecules of a dose stay in the body. What is called clearance is the volume of plasma or blood freed of the substance per unit of time. By half-life is commonly meant how long it takes for the measured level to halve. Read a low half-life as rapid decline. The term IC50 denotes the midpoint of a concentration-inhibition curve. As to `Nc1ncnc2c1c(-c1ccc(Cl)cc1)nn2CCn1cc(COc2ccc(Nc3nccc(Nc4cnc5ccccc5c4)n3)cc2)nn1` [LL6], the “colony formation, anchorage-dependent” value with NSCLC cells is “significantly suppressed”. In addition, the “activation (phosphorylation) of AXL” value in the data set with AXL is reported as “efficiently suppressed”. Further, on CDK11, the remaining binding at 10 µM amounted to 13%. The remaining binding at 10 µM at PLK3 is 90%. The remaining binding at 10 µM at p38-alpha worked out at 100%. Also, the “activation (phosphorylation) of Src” value with Src is on record as “efficiently suppressed”. Also, in data set [1] (SD, rat, plasma, 1 mg/kg, rats, intravenous, read-out: theoretical initial plasma concentration), the C0 came to 33.3 µM. In addition, in data set [1] (setting [2]), the total exposure AUC(0-inf) was 852 ng·h/mL, the AUC(0-t) is 850 ng·h/mL, the MRT is 20.3 min and the clearance was determined as 19.3 ± 1.2 mL/min/kg. This compound registered a half-life in data set [1] (setting [2]) of 29.1 ± 10 min. Also, the C0 in [1] (SD, rat, plasma, rats, intravenous, 1 mg/kg, read-out: C0 (theoretical initial plasma concentration)) worked out at 22700 ng/mL. Besides, the Vd in [1] (SD, rat, plasma, rats, intravenous, 1 mg/kg, read-out: Vss) stood at 0.392 ± 0.186 L/kg. For the same compound, the elimination in plasma result in data set [1] (rats, intravenous) is listed as “rapid”. Besides, the oral bioavailability result in data set [1] (suggested by the pharmacokinetic study) is recorded as “poor”. For the same compound, the IC50 with H460/PmR cells came to 3.64 µM. The IC50 in the data set on HCC15 cells was determined as 3.73 µM.
